The values that follow come from patent US8148516B2, “Flowcell systems for single molecule detection” (Pacific Biosciences of California, Inc., priority 2000, dated 2012).

This data set in a line: Capillary electrophoresis of dTTP and dTDP: effect of Mg++ on electrophoretic mobility. The note with it: 50 mM Tris-acetate pH 8.0, 60 mM KCl; for effect of Mg++ on electrophoretic mobility: MgCl2 3-40 mM. Format: physicochemical. The protocol: The effect of Mg^++ on the electrophoretic mobility of dTTP and dTDP was determined by capillary electrophoresis. Electrophoresis buffer contained 50 mM Tris-acetate pH 8.0, 60 mM KCl, and various concentrations of MgCl2 (3, 4, 6, 10, 15, 25 and 40 mM). The sample contained 0.5 mM nucleotide (dTTP or dTDP; Sigma) and 0.8 mM mesityl oxide (electroneutral marker; Sigma). The samples were analyzed by capillary electrophoresis (Hewlett Packard) using an uncoated fused silica capillary (40 cm from injection end to detection zone). Voltage was 8.5 kV and peaks were monitored by optical absorbance at 260 nm. Electrokinetic velocity of each sample peak was calculated by dividing distance (40 cm) by elution time. Electroosmotic flow (EOF) of the bulk buffer is taken as the velocity of the mesityl oxide marker. Nucleotide electrophoretic velocity is the nucleotide electrokinetic velocity minus EOF. Nucleotide electrophoretic velocities are plotted as a function of Mg^++ concentration (FIG. 11A).

Turning to `Cc1cn([C@H]2C[C@H](O)[C@@H](COP(=O)(O)OP(=O)(O)OP(=O)(O)O)O2)c(=O)[nH]c1=O` [dTTP], the “effect of Mg++ on electrophoretic mobility” value is reported as “from more negative to less negative”. In addition, the “electrophoretic mobility compared with dTDP” value (3-40 mM MgCl2, 8.5 kV) was “more negative electrophoretic mobility than the dTDP”.

As for `Cc1cn([C@H]2C[C@H](O)[C@@H](COP(=O)(O)OP(=O)(O)O)O2)c(=O)[nH]c1=O` [dTDP], the “effect of Mg++ on electrophoretic mobility” value was “from more negative to less negative”.
